We go through seven compounds from patent publication US20150343016A1, “CHEMICAL ENTITIES AND THERAPEUTIC USES THEREOF” (The Regents of the University of Colorado, a body corporate, priority 2010, published 2015).

The subject of assay [1] is Drosophila Chk1 or p53 mutant larvae. Kind of assay: Drosophila screen for agents that increase the sensitivity of mutant larvae to radiation (NCI Diversity Set I and Natural Products Set). The format is in vivo. Conditions: irradiated Drosophila Chk1 or p53 mutant larvae. The source says: The Diversity Set I from the NCI-DTP, which is comprised of 1990 molecules chosen for chemical structural diversity and not for biological activity was screened using the Drosophila screen (U.S. Pat. No. 7,695,899).
Table 1. […] A total of 2225 molecules in Diversity Set I (n=1990) and Natural Products Set (n=235) libraries from the NCI-DTP were screened for agents that increased the sensitivity of Drosophila Chk1 or p53 mutant larvae to radiation. […] MT=microtubule; DS=double strand; topo=topoisomerase; NT=nucleotide
The Natural Product Set, also from the NCI-DTP, which contains 235 small molecules derived from natural sources was selected next. These molecules were identified initially in extracts from plants, microbes and marine organisms, but are now synthesized to sufficient purity for distribution by the NCI as plated sets.
(§1) The screen was performed using irradiated mutant larvae. Hits from the screen were defined as those that reduced the survival of IRRADIATED larvae compared to the population of drugs being tested (approximately 80 molecules at a time) or compared to DMSO controls in the re-test. A hit could therefore act by enhancing the effect of radiation, or by simply killing larvae as a single agent, or both. To distinguish among these possibilities, hits from the screen were re-tested against larvae with and without irradiation.

For assay [2], the system named is wild type Drosophila larvae. Kind of assay: Drosophila larval survival to adulthood (eclosion), drug with and without IR, wild type. The class given is in vivo. Conditions: wild type Drosophila larvae. Here is the method: as §1, with “To validate the identification of Bouvardin from the primary screen, the effect of this molecule on Drosophila larvae alone or in combination with radiation were assessed (FIG. 12). The” for “The”
(§2) In FIG. 12 survival after each treatment is expressed as the fraction of animals that emerged (“eclosed”) as viable adults. The averages have been normalized to the average fraction eclosed in no IR/drug control for the respective genotype. Error bars extend beyond fractional survival of 1.0 simply because of normalization. (A-C) Fraction eclosed for WT and grp and p53 mutants at 16 uM of Bouvardin, with and without IR. The data are averages of 3-8 biological replicates per sample. Dotted line on each graph denotes expected ‘fraction eclosed’ if drug and IR act additively. IR doses were 4000R for WT and grp and 3000R for p53 because of the higher radiation sensitivity of the latter. (D) Fraction eclosed for Minute mutants and yw controls after exposure to 0 (−IR) and 2000R (+IR) of X-rays. N ranged from 86-207 per genotype per treatment, in 3 biological replicates per sample. *=p<0.01; **=<0.001. 100R=1Gy. Error bar=1 standard deviation.
(§3) The activity of Bouvardin in Drosophila alone or in combination with ionizing radiation (IR) was assessed. Drug concentrations of 10-20 μM were used to approximate the conditions of the original screen. Third instar larvae were irradiated and cultured on medium containing drug. The survival of larvae was quantified 10 days later by measuring the rate of eclosion into adulthood. […] For example, IR alone reduces the eclosion of p53 mutants to 0.63±0.05 and 10 μM of drug reduces it to 0.82±0.15. The combination of Bouvardin and IR reduces eclosion to 0.49, nearly the exact number expected (0.63±0.05×0.82±0.15=0.51±0.10) if the two treatments produced an additive effect. The expected eclosion for additive effect of drug and radiation are denoted with a white dotted line in each graph.
(§4) Wild type flies were of the Sevelin stock. Mutants have been described before. p535A-1-4 results from targeted deletion of the gene, and is maintained and used as homogygotes. grpl (Chk1 mutants) results from a p-element insertion and is a genetic null. Homozygotes of the latter were identified by the lack of GFP marker on the balancer chromosome. Minute mutants were of the genotypes y[1]w[*]; P[w[+mC]=lacW]RpS131/CyO and P[lacW]RpL36G0471 w67c23/FM7a. Because Minute mutants were in yw or w background, y1w1 (Bloomington stock #1495) was used as ‘wild type’ control in these experiments.
Feeding stage 3rd instar larvae were irradiated as previously described (2). Briefly, 120 hr old larvae were rinsed to remove food and passed through sizing sieves to obtain animals of uniform size. Larvae were placed in a Petri dish and irradiated using a TORREX X-ray generator, set at 115 kV and 5 mA (producing 2.4 Rads/sec or 1.44 Gy/min) Irradiated larvae were then cultured on cornmeal-agar media (2) containing drug or DMSO carrier. […]

The test system of assay [3] is Det562 Head and Neck Squamous Cell Carcinoma cells. Description: Streptovitacin A alone and in combination with taxol on human cancer cells. The class given is cell-based. Conditions: at a wide range of doses. How it is done:
FIG. 11 depicts that streptovitacin A synergizes with taxol on Det562 Head and Neck Cancer cells. Concentrations for streptovitacin/taxol are shown. CI=1 indicates additive effects; CI>1 indicates antagonistic effects; CI<1 indicates synergy. The y-axis is “Combination Index” (CI).
The effect of streptovitacin A on human cancer cells alone and in combination with taxol was tested.
FIG. 11 depicts that at a wide range of doses the two drugs are synergistic (CI<1) in Det562 Head and Neck Squamous Cell Carcinoma cells.

Assay [4] concerns p53 mutant Drosophila larvae. Kind of assay: Drosophila larval survival to adulthood (eclosion), drug with and without IR, p53 mutants. The class given is in vivo. Conditions: drug alone (without radiation), wide range of doses. How it is done:
as §1, with “To validate the identification of Bouvardin from the primary screen, the effect of this molecule on Drosophila larvae alone or in combination with radiation were assessed (FIG. 12). The” for “The”
as §2, §3, §4
Feeding stage 3rd instar larvae were irradiated as previously described (2). Briefly, 120 hr old larvae were rinsed to remove food and passed through sizing sieves to obtain animals of uniform size. Larvae were placed in a Petri dish and irradiated using a TORREX X-ray generator, set at 115 kV and 5 mA (producing 2.4 Rads/sec or 1.44 Gy/min) Irradiated larvae were then cultured on cornmeal-agar media (2) containing drug or DMSO carrier. In all experiments using human cells, cells in 96-well plates were irradiated with a RS2000 Biological Irradiator (Rad Source Technologies, Inc.) delivering 1 Gy/min.

For assay [5], the system named is H157 lung cancer cells. Description: CellTiter-Glo Luminescent Cell Viability Assay, Streptovitacin with ionizing radiation, H157. The class given is cell-based, human. Conditions: drug added 24 hr before irradiation. How it is done: FIG. 15 depicts CI values for Streptovitacin A and radiation on H157 lung cancer cells.
For FIG. 15 CellTiter-Glo® Luminescent Cell Viability Assay (Promega G7570) were used to determine the effect of Streptovitacin (concentrations in uM) in combination with ionizing radiation (in Gy, X-axis). The drug was added 24 hr before irradiation. (A) Faction affected (Fa) determined by the following formula 1−(x/y) where x is the experimental sample and y is the no Bouvardin/no drug control) (B) Corresponding CI values. Cells were irradiated in a Faxitron X-ray cabinet x-ray system (Lincolnshire, Ill.) set at 115 kV and 5 mA (producing 5.33 Rads/sec or 3.2 Gy/min) Note that this X-ray machine, produces a higher dose rate (lower exposure time) than the X-ray machine used on H157 cells in FIG. 18. Even with the same settings, higher IR doses are needed to achieve the same Fa. More important, combinatorial effects with drugs are similar if not identical on the two machines.
A general note: Cellular ATP, detected with luciferase, serves as a proxy for viable cell number.

Assay [6] deals with Det562 cells. Kind of assay: CellTiter-Glo Luminescent Cell Viability Assay, Bouvardin with Taxol, Det562. The class given is cell-based, human. Conditions: Det562 versus FaDu.
Method: “Combination Index” computation. Combination Indices were calculated using CalcuSyn software (Biosoft), which uses the method of Chou and Talalay. This method first computes drug-induced effect using the Hill Equation: where E is the measured effect; C is the drug concentration; Emax is the full range of drug effect, usually at or near 100%; IC50 is the drug concentration producing the median effect of 50%; and n is the curve shape parameter describing the steepness of the concentration-effect relationship. The Chou and Talalay method then linearizes the Hill Equation by logarithmic transformation as: where fu is the fraction of cells left unaffected after drug exposure, fa is the fraction of cells affected by the exposure, C is the drug concentration used, Cm is the concentration to achieve the median effect, and n is the curve shape parameter. Cm and n are equivalent to IC50 and n, respectively, in the Hill Equation. The values of n (obtained from the slope), nlog(Cm) (obtained from the absolute value of the intercept), and, therefore, Cm are obtained by plotting log(fu−1−1) versus log(C). […]
The growth inhibitory effects of Bouvardin with Taxol were evaluated using CellTiter-Glo® Luminescent Cell Viability Assay (Promega G7570). […] Luminescence of each well was measured using an automated plate reader.
Assay [7] deals with xenografts of Rhabdomyosarcoma. Conditions: cited from earlier work.
Assay [8] has as its system cells from human squamous cell carcinoma, melanoma, non-small cell lung carcinoma, malignant gliomas and small cell lung cancer. Conditions: Topotecan and its analogs; preclinical models; cited from earlier work.

As to `CC[C@@]1(O)C(=O)OCc2c1cc1n(c2=O)Cc2cc3ccccc3nc2-1` [20-S Camptothecin], the “Reproducible hit that increased the sensitivity of larvae to radiation; screen in which identified” value in assay [1] was “Camptothecin (1)”.

Regarding `CC[C@H](C)[C@H]1NC(=O)[C@@H](NC(=O)[C@@H](CC(C)C)N(C)C(=O)[C@@H]2CCCN2C(=O)C(C)O)[C@@H](C)OC(=O)[C@H](Cc2ccc(OC)cc2)N(C)C(=O)[C@@H]2CCCN2C(=O)[C@H](CC(C)C)NC(=O)[C@@H](C)C(=O)[C@H](C(C)C)OC(=O)C[C@@H]1O` (stereo partly shown) [Didemnin B], the “Reproducible hit that increased the sensitivity of larvae to radiation; screen in which identified” value in assay [1] was “Didemnin B (2)”.

Turning to `C[C@H]1CC[C@@H](C(C)(C)O)CC2=C1CC[C@@H]2C` [Guaiol], in assay [1], the “Reproducible hit that increased the sensitivity of larvae to radiation; screen in which identified” value is reported as “Guaiol (2)”.

Consider `C[C@H]1C[C@@](C)(O)C[C@@H]([C@H](O)CC2CC(=O)NC(=O)C2)C1=O` [Streptovitacin A, streptovitacin A], for which the “manner in which drug and ionizing radiation act together to kill larvae” value in assay [2] was “act synergistically”. Also, the “observed average for the combination versus expected additive value” in assay [2] (10 μM drug + IR) was “significantly lower than the expected additive value”. In assay [3], the “Combination Index (CI), streptovitacin A with taxol” value is on record as less than 1. For the same compound, the “fraction of p53 mutant larvae that survive to adulthood versus wild type larvae” value in assay [4] is given as “lower than the fraction of wild type larvae that survive to adulthood”; in assay [4] (listed as streptovitacin A), “kills p53 mutant larvae selectively over wild type larvae”. Besides, the “interaction of drug with radiation” value in assay [5] was “synergize at most combinations tested”.

For the compound `CC(=O)O[C@H]1C(=O)[C@@]2(C)[C@H]([C@H](OC(=O)c3ccccc3)[C@]3(O)C[C@H](OC(=O)[C@H](O)[C@@H](NC(=O)c4ccccc4)c4ccccc4)C(C)=C1C3(C)C)[C@]1(OC(C)=O)CO[C@@H]1C[C@@H]2O` [Taxol, paclitaxel, reference compound], the “sensitivity of cells to Taxol alone” value in assay [6] is given as “more sensitive to Taxol alone than FaDu cells”.

`CC[C@@]1(O)C(=O)OCc2c1cc1n(c2=O)Cc2cc3c(CN(C)C)c(O)ccc3nc2-1` [Topotecan]: the interaction with radiation result in assay [7] was “Synergy between Topotecan and radiation has been confirmed”; in assay [8] it was “synergize with radiation”.

With Bleomycin, the “Reproducible hit that increased the sensitivity of larvae to radiation; screen in which identified” value in assay [1] was “Bleomycin (2)”.
